Converted amounts (≈) assume the structure as drawn. “And” between values parts separate entries of the source, which are not always exact repeats. Identical values can stand only once.
What was measured:
[1] = molecular target: T1, wt SpsB (Staphylococcus aureus, UniProt P0A070); details: cited from earlier work
T1 construct: recombinantly expressed full-length S. aureus SpsB (wt) or mutants; made in house; host or cells: E. coli BL21(DE3)pLysS, membrane fraction

[2] = molecular target: T2, SpsB Q165A mutant (Staphylococcus aureus, UniProt P0A070, Q165A); test: FRET-based signal peptidase assay with membrane-bound SpsB, Q165A mutant; assay type: biochemical, S. aureus; details: 10 µM; relative to DMSO
T2 construct: recombinantly expressed full-length S. aureus SpsB (wt) or mutants; made in house; host or cells: E. coli BL21(DE3)pLysS, membrane fraction
T2 sequence (P0A070 1-191 Q165A): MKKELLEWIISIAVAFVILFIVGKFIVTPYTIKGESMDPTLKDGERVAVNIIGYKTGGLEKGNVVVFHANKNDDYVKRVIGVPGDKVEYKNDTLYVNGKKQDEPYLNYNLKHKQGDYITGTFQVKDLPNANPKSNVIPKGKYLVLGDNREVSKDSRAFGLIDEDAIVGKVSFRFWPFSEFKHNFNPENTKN
Procedure: Cloning of full-length SpsB (fl-SpsB) was performed using the Invitrogen Gateway Technology in previous works by Le et al.. fl-SpsB was cloned into the destination vector pET-55-DEST (Novagen) and transformed into chemically competent E. coli BL21(DE3)pLysS cells (Promega) to prevent leaky protein overexpression. Plasmid DNA of wildtype SpsB pET-55-DEST-fl-SpsB was purified using a plasmid Miniprep Kit (peqGOLD Plasmid Miniprep Kit II, VWR Peqlab) according to the manufacturer’s instructions and used as template for all single point mutations (F67A, Y75A, F158A, Q165A). […]
For preparation of E. coli membrane fractions harboring overexpressed S. aureus SpsB, E. coli BL21(DE3) pLysS cells harboring pET-55-DEST-fl-SpsB or respective mutant plasmids (F67A, Y75A, F158A, Q165A, F67A-Y75A, F67A-F158A, Y75A-F158A, F67A-Y75A-F158A) were grown in LB medium (supplemented with Ampicillin (100 µg/mL) and Chloramphenicol (34 µg/mL)) at 37°C (200 rpm) to OD600 ≈ 0.6 and protein overexpression was induced by the addition of isopropyl-1-thio-β-galactopyranoside (IPTG, 0.5 mM). […] Protein concentration was measured using the Pierce BCA Protein assay kit (Thermo Fisher Scientific, Pierce Biotechnology) and snap-frozen aliquots were stored at −80 °C. […]

[3] = molecular target: T1, wt SpsB; test: FRET-based signal peptidase assay with membrane-bound SpsB (wt); assay type: biochemical, S. aureus
Procedure: For preparation of E. coli membrane fractions harboring overexpressed S. aureus SpsB, E. coli BL21(DE3) pLysS cells harboring pET-55-DEST-fl-SpsB or respective mutant plasmids (F67A, Y75A, F158A, Q165A, F67A-Y75A, F67A-F158A, Y75A-F158A, F67A-Y75A-F158A) were grown in LB medium (supplemented with Ampicillin (100 µg/mL) and Chloramphenicol (34 µg/mL)) at 37°C (200 rpm) to OD600 ≈ 0.6 and protein overexpression was induced by the addition of isopropyl-1-thio-β-galactopyranoside (IPTG, 0.5 mM). After incubation (22 °C, 200 rpm, 3 h), cells were harvested by centrifugation (6000 × g, 4 °C, 10 min) and subsequently washed with PBS. The cell pellet was resuspended in 5 mL Tris-HCl buffer (50 mM, pH = 7.5) and lysed using a bead beater homogenizer (3 cycles: 5500 rpm for 45 s, 30 s cooling; Precellys Ceramic Kit CK01L, 7.0 mL tubes; Precellys 24 Homogenizer, Bertin Technologies). The lysate was centrifuged (12,000 × g, 4 °C, 10 min) to remove intact cells and debris. Membranes were collected from supernatant (39,000 × g, 4 °C, 75 min) and resuspended in ice-cold sodium phosphate buffer (50 mM, pH 7.5). Protein concentration was measured using the Pierce BCA Protein assay kit (Thermo Fisher Scientific, Pierce Biotechnology) and snap-frozen aliquots were stored at −80 °C.
Signal cleavage activities of recombinantly expressed full-length S. aureus SpsB (wt) or mutants (F67A, Y75A, F158A, Q165A, F67A-Y75A, F67A-F158A, Y75A-F158A, F67A-Y75A-F158A) in E. coli membranes were measured using a Förster Resonance Energy Transfer (FRET) assay as previously described[20],[36].
A synthetic peptide substrate based on SceD modified by 4-(4- dimethylaminophenylazo)benzoic (DABCYL) acid and 5-((2-aminoethyl)amino)-1- naphthalenesulfonic acid (EDANS) was used (DABCYL-[…]-EDANS, AnaSpec) as FRET substrate. Assays were performed with overexpressed wildtype SpsB (wt) or mutant (F67A, Y75A, F158A, Q165A, F67A-Y75A, F67A-F158A, Y75A-F158A, F67A-Y75A-F158A) in E. coli membranes. As controls for background activity, respective E. coli membranes without IPTG induction were used (see Experimental procedure “Preparation of E. coli membrane (control) fractions. Membranes containing recombinant wildtype SpsB or mutant (50 µg/mL membrane concentration, 100 µL/well final volume, sodium phosphate buffer, 50 mM, pH 7.5, addition of detergent if indicated; final concentrations in buffer: 0.1% CHAPS, 0.001% NP-40 or 0.1% Tween) were pre-treated with PK150, Arylomycin A4 or DMSO as a control (final concentration 1%) at 37 °C for 5 min. After addition of FRET substrate (10 µM final substrate concentration; final DMF concentration from substrate stock 1%), fluorescence turnover was monitored by an Infinite™ M Nano Tecan 200Pro reader (340 nm excitation and 510 nm emission wavelengths, fluorescence top reading mode) at 37 °C for at least 2 h.
The assay was performed in technical triplicates for at least three biologically independent experiments (n ≥ 3). Significance of cleavage activity was determined via a two-tailed Students t-test for comparison of membranes treated with DMSO to PK150.

[4] = system: S. aureus NCTC 8325; parameters: method as in Le et al., Nat Chem. 2020; details: ref Le et al., Nat Chem. 2020; cited from earlier work

O=C(Nc1ccc2c(c1)OC(F)(F)O2)Nc1ccc(Cl)c(C(F)(F)F)c1 [PK150, (4-Chloro-3-(trifluoromethyl)phenyl)-3-(2,2-difluorobenzo[d][1,3]dioxol-5-yl)urea]
overactivation compared to DMSO ([1]; 50 µM compound concentration, ref Le et al., Nat Chem. 2020): 250%
overactivation of SpsB [1]: up to 3 fold
elevated activity in Q165A mutant [2]: 1.7 fold
allosteric stimulation of SpsB activity ([3]; 10 µM in E. coli induced SpsB membranes): 170%
elevated activity in wildtype SpsB ([3]; 10 µM, relative to DMSO): 1.7 fold
activation of wt SpsB in presence of detergents ([3]; 0.01% Tween, 0.001% NP-40, 0.1% CHAPS (<cmc), PK150 10 µM): Activation of wt SpsB with PK150 could still be shown for all detergents
activity at 0.195 µM ([3]; PK150 0.195uM, replicates, read-out: wt PK150 (normalized activity)): 111%
activity at 0.39 µM ([3]; PK150 0.39uM, replicates, read-out: wt PK150 (normalized activity)): 127%
activity at 1.5625 µM ([3]; PK150 1.5625uM, replicates, read-out: wt PK150 (normalized activity)): 131%
wt PK150 10 µM norm. value ([3]; PK150 10 µM, substrate cleavage rate normalized to DMSO (100), single biological replicates): 153.034 and 181.137 and 173.665 and 173.73 and 163.958 and 182.132
overactivation at higher compound concentrations ([3]; higher compound concentrations (Figure 3a)): up to 250%
MIC [4]: 0.3 µM (≈ 0.118 µg/mL)

From publication PMC11266668, “Unraveling the mechanism of small molecule induced activation of Staphylococcus aureus signal peptidase IB” (Communications Biology, 2024)
